One block for each compound: values may come before it.
System: NCI-H929 complex spheroids, viability % test/control
Experiment: Anticancer human tumor NCI-H929 cell line growth inhibition [RAS];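 note: compound exposure lasted seven days before viability was read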;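 for viability, T/C: 100% = DMSO vehicle control viability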
Settings: for viability, T/C: stronger effect = lower value
How it was run: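 Multi-cell-type spheroids: tumor cells plus HUVEC endothelial cells and mesenchymal stem cells. RAS-pathway inhibitors were combined with targeted agents, each dosed in half-log steps down from clinical Cmax, or from 10 microM when Cmax was unknown.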

[1] = curve of first compound, second compound 0.0316 µM
[2] = curve of first compound, second compound 0.1 µM
[3] = curve of first compound, second compound 0.316 µM
[4] = curve of first compound, second compound 1 µM
[5] = second compound 0.0316 µM, first compound 0.00316 µM
[6] = second compound 0.0316 µM, first compound 0.01 µM
[7] = second compound 0.0316 µM, first compound 0.0316 µM
[8] = second compound 0.0316 µM, first compound 0.1 µM
[9] = second compound 0.0316 µM, first compound 0.316 µM
[10] = second compound 0.0316 µM, first compound 1 µM
[11] = second compound 0.1 µM, first compound 0.00316 µM
[12] = second compound 0.1 µM, first compound 0.01 µM
[13] = second compound 0.1 µM, first compound 0.0316 µM
[14] = second compound 0.1 µM, first compound 0.1 µM
[15] = second compound 0.1 µM, first compound 0.316 µM
[16] = second compound 0.1 µM, first compound 1 µM
[17] = second compound 0.316 µM, first compound 0.00316 µM
[18] = second compound 0.316 µM, first compound 0.01 µM
[19] = second compound 0.316 µM, first compound 0.0316 µM
[20] = second compound 0.316 µM, first compound 0.1 µM
[21] = second compound 0.316 µM, first compound 0.316 µM
[22] = second compound 0.316 µM, first compound 1 µM
[23] = second compound 1 µM, first compound 0.00316 µM
[24] = second compound 1 µM, first compound 0.01 µM
[25] = second compound 1 µM, first compound 0.0316 µM
[26] = second compound 1 µM, first compound 0.1 µM
[27] = second compound 1 µM, first compound 0.316 µM
[28] = second compound 1 µM, first compound 1 µM

- IC50 [1]: > 1 µM
- IC50 [2]: > 1 µM
- IC50 [3]: > 1 µM
- IC50 [4]: > 1 µM
- IC50 (curve of first compound, second compound 3.16 µM): > 1 µM
- IC50 (curve of first compound, second compound 10 µM): > 1 µM
Structure (SMILES): CCN1CCN(Cc2ccc(Nc3ncc(F)c(-c4cc(F)c5nc(C)n(C(C)C)c5c4)n3)nc2)CC1 + C#Cc1c(F)ccc2cc(O)cc(-c3ncc4c(N5CC6CCC(C5)N6)nc(OCC56CCCN5CC(F)C6)nc4c3F)c12
- viability, T/C [5]: 101%
- viability, T/C [6]: 102%
- viability, T/C [7]: 108%
- viability, T/C [8]: 106%
- viability, T/C [9]: 120%
- viability, T/C [10]: 107%
- viability, T/C [11]: 92.2%
- viability, T/C [12]: 99.1%
- viability, T/C [13]: 103%
- viability, T/C [14]: 107%
- viability, T/C [15]: 118%
- viability, T/C [16]: 110%
- viability, T/C [17]: 96.6%
- viability, T/C [18]: 100%
- viability, T/C [19]: 103%
- viability, T/C [20]: 113%
- viability, T/C [21]: 120%
- viability, T/C [22]: 115%
- viability, T/C [23]: 93.2%
- viability, T/C [24]: 102%
- viability, T/C [25]: 109%
- viability, T/C [26]: 113%
- viability, T/C [27]: 117%
- viability, T/C [28]: 112%
- viability, T/C (second compound 3.16 µM, first compound 0.00316 µM): 97.8%
- viability, T/C (second compound 3.16 µM, first compound 0.01 µM): 100%
- viability, T/C (second compound 3.16 µM, first compound 0.0316 µM): 104%
- viability, T/C (second compound 3.16 µM, first compound 0.1 µM): 112%
- viability, T/C (second compound 3.16 µM, first compound 0.316 µM): 120%
- viability, T/C (second compound 3.16 µM, first compound 1 µM): 115%
- viability, T/C (second compound 10 µM, first compound 0.00316 µM): 98.5%
- viability, T/C (second compound 10 µM, first compound 0.01 µM): 100%
- viability, T/C (second compound 10 µM, first compound 0.0316 µM): 99.2%
- viability, T/C (second compound 10 µM, first compound 0.1 µM): 109%
- viability, T/C (second compound 10 µM, first compound 0.316 µM): 118%
- viability, T/C (second compound 10 µM, first compound 1 µM): 57.3%

- IC50 (curve of compound): > 10 µM
Structure (SMILES): NC1c2ccccc2OC12CCN(c1cnc3c(N4CCCc5ncccc54)n[nH]c3n1)CC2 (stereo not drawn)
- viability, T/C (compound 0.0316 µM): 104% [middle of 4 runs]
- viability, T/C (compound 0.1 µM): 99.1% [middle of 4 runs]
- viability, T/C (compound 0.316 µM): 104% [middle of 4 runs]
- viability, T/C (compound 1 µM): 102% [middle of 4 runs]
- viability, T/C (compound 3.16 µM): 101% [middle of 4 runs]
- viability, T/C (compound 10 µM): 69.9% [middle of 4 runs]

- IC50 (curve of first compound, second compound 0.000949 µM): 0.625 µM
- IC50 (curve of first compound, second compound 0.003 µM): 0.29 µM
- IC50 (curve of first compound, second compound 0.00949 µM): 0.069 µM
- IC50 (curve of first compound, second compound 0.03 µM): < 0.00316 µM
- IC50 (curve of first compound, second compound 0.0949 µM): < 0.00316 µM
- IC50 (curve of first compound, second compound 0.3 µM): < 0.00316 µM
Structure (SMILES): O=C(c1ccc(F)c(F)c1Nc1ccc(I)cc1F)N1CC(O)([C@@H]2CCCCN2)C1 + CCn1c(-c2cc(N3CCN(C)CC3)cnc2C(C)OC)c2c3cc(ccc31)-c1csc(n1)CC(NC(=O)C1CC1C)C(=O)N1CCCC(N1)C(=O)OCC(C)(C)C2
- viability, T/C (second compound 0.000949 µM, first compound 0.00316 µM): 93.3%
- viability, T/C (second compound 0.000949 µM, first compound 0.01 µM): 92.5%
- viability, T/C (second compound 0.000949 µM, first compound 0.0316 µM): 103%
- viability, T/C (second compound 0.000949 µM, first compound 0.1 µM): 108%
- viability, T/C (second compound 0.000949 µM, first compound 0.316 µM): 97.3%
- viability, T/C (second compound 0.000949 µM, first compound 1 µM): 17.4%
- viability, T/C (second compound 0.003 µM, first compound 0.00316 µM): 90.8%
- viability, T/C (second compound 0.003 µM, first compound 0.01 µM): 101%
- viability, T/C (second compound 0.003 µM, first compound 0.0316 µM): 111%
- viability, T/C (second compound 0.003 µM, first compound 0.1 µM): 119%
- viability, T/C (second compound 0.003 µM, first compound 0.316 µM): 45.5%
- viability, T/C (second compound 0.003 µM, first compound 1 µM): 7.02%
- viability, T/C (second compound 0.00949 µM, first compound 0.00316 µM): 110%
- viability, T/C (second compound 0.00949 µM, first compound 0.01 µM): 117%
- viability, T/C (second compound 0.00949 µM, first compound 0.0316 µM): 113%
- viability, T/C (second compound 0.00949 µM, first compound 0.1 µM): 19.9%
- viability, T/C (second compound 0.00949 µM, first compound 0.316 µM): 6.27%
- viability, T/C (second compound 0.00949 µM, first compound 1 µM): 3.63%
- viability, T/C (second compound 0.03 µM, first compound 0.00316 µM): 31.8%
- viability, T/C (second compound 0.03 µM, first compound 0.01 µM): 15.7%
- viability, T/C (second compound 0.03 µM, first compound 0.0316 µM): 4.87%
- viability, T/C (second compound 0.03 µM, first compound 0.1 µM): 2.83%
- viability, T/C (second compound 0.03 µM, first compound 0.316 µM): 2.77%
- viability, T/C (second compound 0.03 µM, first compound 1 µM): 2.07%
- viability, T/C (second compound 0.0949 µM, first compound 0.00316 µM): 4.34%
- viability, T/C (second compound 0.0949 µM, first compound 0.01 µM): 3.41%
- viability, T/C (second compound 0.0949 µM, first compound 0.0316 µM): 1.75%
- viability, T/C (second compound 0.0949 µM, first compound 0.1 µM): 1.48%
- viability, T/C (second compound 0.0949 µM, first compound 0.316 µM): 1.32%
- viability, T/C (second compound 0.0949 µM, first compound 1 µM): 0.89%
- viability, T/C (second compound 0.3 µM, first compound 0.00316 µM): 3%
- viability, T/C (second compound 0.3 µM, first compound 0.01 µM): 1.97%
- viability, T/C (second compound 0.3 µM, first compound 0.0316 µM): 1.19%
- viability, T/C (second compound 0.3 µM, first compound 0.1 µM): 1.05%
- viability, T/C (second compound 0.3 µM, first compound 0.316 µM): 1.12%
- viability, T/C (second compound 0.3 µM, first compound 1 µM): 0.68%

- IC50 (curve of first compound, second compound 0.00316 µM): > 1 µM
- IC50 (curve of first compound, second compound 0.01 µM): > 1 µM
- IC50 [1]: > 1 µM
- IC50 [2]: > 1 µM
- IC50 [3]: > 1 µM
- IC50 [4]: > 1 µM
Structure (SMILES): O=C(c1ccc(F)c(F)c1Nc1ccc(I)cc1F)N1CC(O)([C@@H]2CCCCN2)C1 + C=CC(=O)N1CCN(c2nc(OCC3CCCN3C)nc3c(F)c(-c4nc(N)cc(C)c4C(F)(F)F)c(Cl)cc23)C(C)C1
- viability, T/C (second compound 0.00316 µM, first compound 0.00316 µM): 101%
- viability, T/C (second compound 0.00316 µM, first compound 0.01 µM): 92.1%
- viability, T/C (second compound 0.00316 µM, first compound 0.0316 µM): 85.7%
- viability, T/C (second compound 0.00316 µM, first compound 0.1 µM): 88.7%
- viability, T/C (second compound 0.00316 µM, first compound 0.316 µM): 112%
- viability, T/C (second compound 0.00316 µM, first compound 1 µM): 55.4%
- viability, T/C (second compound 0.01 µM, first compound 0.00316 µM): 102%
- viability, T/C (second compound 0.01 µM, first compound 0.01 µM): 91.2%
- viability, T/C (second compound 0.01 µM, first compound 0.0316 µM): 83.5%
- viability, T/C (second compound 0.01 µM, first compound 0.1 µM): 94.2%
- viability, T/C (second compound 0.01 µM, first compound 0.316 µM): 112%
- viability, T/C (second compound 0.01 µM, first compound 1 µM): 58.3%
- viability, T/C [5]: 96.9%
- viability, T/C [6]: 96.8%
- viability, T/C [7]: 88.6%
- viability, T/C [8]: 95.2%
- viability, T/C [9]: 112%
- viability, T/C [10]: 57.4%
- viability, T/C [11]: 99.2%
- viability, T/C [12]: 93.4%
- viability, T/C [13]: 89.1%
- viability, T/C [14]: 93.3%
- viability, T/C [15]: 113%
- viability, T/C [16]: 56.7%
- viability, T/C [17]: 97.8%
- viability, T/C [18]: 101%
- viability, T/C [19]: 84.3%
- viability, T/C [20]: 92.7%
- viability, T/C [21]: 117%
- viability, T/C [22]: 54.4%
- viability, T/C [23]: 106%
- viability, T/C [24]: 97.5%
- viability, T/C [25]: 91.3%
- viability, T/C [26]: 104%
- viability, T/C [27]: 116%
- viability, T/C [28]: 54%

From PubChem BioAssay AID2060884 (Molecular Pharmacology Branch, DTP, NCI, 2025)
